Test results from US9297810B2, “CD40L-binding agent based platelet aggregation assays” (BIOGEN IDEC MA INC., priority 2005, dated 2016).
Several values for one entry are separate records, joined by “and”; a condition that tells them apart may be missing. Identical values can stand only once. Entries after “also recorded” stand apart in the source; their conditions may differ.

Experiments:
[1] = tested on: ADP-Activated Platelets / resting platelets (platelet rich plasma); test: Platelet aggregation assay (PRP, Biodata PAP-4 aggregation profiler); assay type: cell-based, human; conditions: for effect on aggregation of resting platelets: no ADP; for effect on the aggregation of ADP-activated platelets: wide range of ADP concentrations
Experimental: All platelets used in the in vitro platelet aggregation experiments were isolated from healthy human volunteers who denied ingesting aspirin or aspirin containing compounds within 10 days. Aggregation assays were performed on PRP. Approximately 50 mL of whole blood was collected in aliquots in 4.5 mL vacutainer tubes containing 0.5 mL of 3.8% sodium citrate. PRP was prepared by centrifuging the anticoagulated blood at 200 g for 10 minutes and harvesting the supernatant.
The Biodata 4-channel platelet aggregation profiler (PAP-4; Biodata Corp., Hatboro, Pa.) was blanked using a cuvette containing only platelet poor plasma (PPP). A 350 μL aliquot of PRP, containing approximately 2 to 5×10^8/mL platelets, was added to a cuvette containing a stir bar. Anti-CD40L antibody, human IgG, normal human serum, CD40-Fc, or anti-hFc were added in a total volume of 100 μL. The loaded cuvette was placed in the machine and the reaction components mixed prior to the addition of ADP.
Aggregation was initiated with the addition of sub-optimal concentration of ADP in 50 μL (final concentration varies for each individual sample). The aggregation profiler has four ports, which can run simultaneously. An aggregation tracing was generated for each sample for four minutes following the addition of ADP. At the end of the tracing, the instrument calculates the percentage of aggregation by comparing the transmission of light through the sample to the transmission of light through the PPP blank. A titration was performed at the beginning of each experiment, and subsequent runs were performed at a suboptimal ADP concentration.

[2] = biological target: T1, CD40L on the platelet surface (Homo sapiens, UniProt P29965); test: Binding of biotin-conjugated anti-CD40L antibody to platelets (western blotting with HRP-streptavidin); conditions: data not shown
T1 construct: Platelets were incubated with a biotin-conjugated anti-CD40L antibody to determine whether CD40L is present on the surface of platelets; endogenous in cells
T1 sequence (P29965 1-261): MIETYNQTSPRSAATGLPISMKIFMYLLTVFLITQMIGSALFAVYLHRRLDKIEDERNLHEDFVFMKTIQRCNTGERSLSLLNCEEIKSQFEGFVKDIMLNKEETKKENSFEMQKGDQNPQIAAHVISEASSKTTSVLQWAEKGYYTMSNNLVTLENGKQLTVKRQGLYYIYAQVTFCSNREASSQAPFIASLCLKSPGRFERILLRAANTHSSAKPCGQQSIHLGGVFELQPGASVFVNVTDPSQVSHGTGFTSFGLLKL

[3] = result in words, listed as Anti-CD40L antibody

Question: “BG9588: Research-grade anti-CD40L antibody prepared at Biogen; table column BG9588 corresponds to it” was tested. Which “effect on aggregation of cross-linking of antibody bound to CD40L on activated platelets” value ([1]; 2 μg/mL, cross-linked with anti-hFc (Table 5)) did it give?
Answer: may enhance aggregation under limited conditions

Question: And the “effect on platelet aggregation of anti-CD40L antibody cross-linked by sCD40L” value ([1]; FIG. 3, 233 μg/mL antibody and 30 μg/mL sCD40L, PRP of ten healthy donors, sub-optimal ADP)?
Answer: affected; also recorded: enhanced aggregation occurred with platelets isolated from some, but not all, healthy donors; also recorded: induced

Question: What about the “effect on platelet aggregation together with sCD40L” value ([1]; FIG. 4, 200 μg/mL with sCD40L 30 μg/mL, 0.75 μM ADP, one donor) of the same molecule?
Answer: specifically enhanced

Question: And the “% of Aggregation” value ([1]; Table 1, 5 μg/mL, ADP 0.00 μM (resting platelets))?
Answer: 11%

Question: What about the “% of Aggregation” value ([1]; Table 1, 5 μg/mL, ADP 0.37 μM) of the same molecule?
Answer: 15%

Question: And the “% of Aggregation” value ([1]; Table 1, 5 μg/mL, ADP 0.70 μM)?
Answer: 24%

Question: What about the “% of Aggregation” value ([1]; Table 1, 5 μg/mL, ADP 2.00 μM) of the same molecule?
Answer: 21%

Question: What about the “% of Aggregation” value ([1]; Table 1, 5 μg/mL, ADP 6.70 μM) of the same molecule?
Answer: 71%

Question: What about the “% of Aggregation” value ([1]; Table 1, 5 μg/mL, ADP 20.00 μM, PRP, four-minute tracing) of the same molecule?
Answer: 72%

Question: And the “% of Aggregation” value ([1]; Table 2, 5 μg/mL, ADP 0.37 μM)?
Answer: 10%

Question: What about the “% of Aggregation” value ([1]; Table 2, 5 μg/mL, ADP 0.70 μM) of the same molecule?
Answer: 10%

Question: And the “% of Aggregation” value ([1]; Table 2, 5 μg/mL, ADP 2.00 μM)?
Answer: 12%

Question: What about the “% of Aggregation” value ([1]; Table 2, 5 μg/mL, ADP 6.70 μM) of the same molecule?
Answer: 78%

Question: And the “% of Aggregation” value ([1]; Table 2, 5 μg/mL, ADP 20.00 μM)?
Answer: 80%

Question: And the “% of Aggregation” value ([1]; Table 3, 5 μg/mL, ADP 0.00 μM (resting platelets))?
Answer: 3%

Question: What about the “% of Aggregation” value ([1]; Table 3, 5 μg/mL, ADP 0.30 μM) of the same molecule?
Answer: 10%

Question: And the “% of Aggregation” value ([1]; Table 3, 5 μg/mL, ADP 0.60 μM)?
Answer: 10%

Question: What about the “% of Aggregation” value ([1]; Table 3, 5 μg/mL, ADP 1.25 μM) of the same molecule?
Answer: 12%

Question: What about the “% of Aggregation” value ([1]; Table 3, 5 μg/mL, ADP 2.50 μM) of the same molecule?
Answer: 62%

Question: What about the “% of Aggregation” value ([1]; Table 3, 5 μg/mL, ADP 5.00 μM) of the same molecule?
Answer: 67%

Question: And the “% of Aggregation” value ([1]; Table 3, 5 μg/mL, ADP 10.00 μM)?
Answer: 69%

Question: And the “% of Aggregation” value ([1]; Table 3, 5 μg/mL, ADP 20.00 μM)?
Answer: 68%

Question: And the “% of Aggregation” value ([1]; Table 4, 1.25 μg/mL, ADP 0.00 μM)?
Answer: 3%

Question: What about the “% of Aggregation” value ([1]; Table 4, 2.50 μg/mL, ADP 0.00 μM) of the same molecule?
Answer: 5%

Question: And the “% of Aggregation” value ([1]; Table 4, 5.00 μg/mL, ADP 0.00 μM)?
Answer: 3%

Question: What about the “% of Aggregation” value ([1]; Table 4, 10.00 μg/mL, ADP 0.00 μM) of the same molecule?
Answer: 3%

Question: And the “% of Aggregation” value ([1]; Table 4, 20.00 μg/mL, ADP 0.00 μM)?
Answer: 3%

Question: What about the “% of Aggregation” value ([1]; Table 5, BG9588 2 μg/mL + anti-hFc 2.22 μg/mL, ADP 0.0 μM) of the same molecule?
Answer: 3%

Question: And the “% of Aggregation” value ([1]; Table 5, BG9588 2 μg/mL + anti-hFc 2.22 μg/mL, ADP 0.5 μM)?
Answer: 8%

Question: What about the “% of Aggregation” value ([1]; Table 5, BG9588 2 μg/mL + anti-hFc 2.22 μg/mL, ADP 1.0 μM) of the same molecule?
Answer: 76%

Question: What about the “% of Aggregation” value ([1]; Table 5, BG9588 2 μg/mL + anti-hFc 6.66 μg/mL, ADP 0.0 μM) of the same molecule?
Answer: 3%

Question: What about the “% of Aggregation” value ([1]; Table 5, BG9588 2 μg/mL + anti-hFc 6.66 μg/mL, ADP 0.5 μM) of the same molecule?
Answer: 8%

Question: What about the “% of Aggregation” value ([1]; Table 5, BG9588 2 μg/mL + anti-hFc 6.66 μg/mL, ADP 1.0 μM) of the same molecule?
Answer: 84%

Question: What about the “% of Aggregation” value ([1]; Table 5, BG9588 2 μg/mL + anti-hFc 20.00 μg/mL, ADP 0.0 μM) of the same molecule?
Answer: 3% and 4%

Question: What about the “% of Aggregation” value ([1]; Table 5, BG9588 2 μg/mL + anti-hFc 20.00 μg/mL, ADP 0.5 μM) of the same molecule?
Answer: 8%

Question: What about the “% of Aggregation” value ([1]; Table 5, BG9588 2 μg/mL + anti-hFc 20.00 μg/mL, ADP 1.0 μM) of the same molecule?
Answer: 83%

Question: What about the “% of Aggregation” value ([1]; Table 5, BG9588 2 μg/mL alone, ADP 0.0 μM) of the same molecule?
Answer: 3%

Question: And the “% of Aggregation” value ([1]; Table 6, resting platelets, BG9588 2 μg/mL + serum 0.00032x)?
Answer: 6%

Question: What about the “% of Aggregation” value ([1]; Table 6, resting platelets, BG9588 2 μg/mL + serum 0.0016x) of the same molecule?
Answer: 6%

Question: And the “% of Aggregation” value ([1]; Table 6, resting platelets, BG9588 2 μg/mL + serum 0.008x)?
Answer: 7%

Question: What about the “% of Aggregation” value ([1]; Table 6, resting platelets, BG9588 2 μg/mL + serum 0.04x) of the same molecule?
Answer: 6%

Question: What about the “% of Aggregation” value ([1]; Table 6, resting platelets, BG9588 2 μg/mL + serum 0.2x) of the same molecule?
Answer: 6%

Question: And the “% of Aggregation” value ([1]; Table 6, resting platelets, BG9588 2 μg/mL + serum 1.0x)?
Answer: 9%

Question: And the “effect on platelet aggregation of cross-linked anti-CD40L antibody” value ([1]; cross-linked with 2.22 μg/mL anti-hFc, ADP 1.0 μM (Table 5 lines 109 and 110))?
Answer: increased aggregation

Question: And the “effect on platelet aggregation of cross-linked anti-CD40L antibody” value ([1]; cross-linked with 20 μg/mL or 6.66 μg/mL anti-hFc)?
Answer: did not affect

Question: And the “enhancing effect on platelet aggregation of cross-linked anti-CD40L antibody” value ([1]; cross-linked with anti-hFc, lower concentration of ADP)?
Answer: not observed

Question: And the “effect on aggregation of resting platelets” value [1, 3]?
Answer: do not induce

Question: And the “effect on aggregation of resting platelets” value ([1]; result in words, listed as anti-CD40L antibody)?
Answer: not affected

Question: And the “effect on platelet aggregation” value ([1]; result in words)?
Answer: does not affect

Question: What about the “effect on the aggregation of ADP-activated platelets” value [1, 3] of the same molecule?
Answer: do not induce the aggregation of resting platelets or affect; also recorded: do not affect

Question: And the “effect on the aggregation of ADP-activated platelets” value ([1]; result in words, listed as Research-grade anti-CD40L antibody)?
Answer: did not affect

Question: And the “effect on platelets in the presence of normal human serum” value ([1]; with normal human serum (Table 6))?
Answer: not affected

B1: sCD40L: recombinant soluble CD40 ligand prepared at Biogen, cross-linking agent (protein, UniProt P29965 47-261, looked up)
extracellular domain: HRRLDKIEDERNLHEDFVFMKTIQRCNTGERSLSLLNCEEIKSQFEGFVKDIMLNKEETKKENSFEMQKGDQNPQIAAHVISEASSKTTSVLQWAEKGYYTMSNNLVTLENGKQLTVKRQGLYYIYAQVTFCSNREASSQAPFIASLCLKSPGRFERILLRAANTHSSAKPCGQQSIHLGGVFELQPGASVFVNVTDPSQVSHGTGFTSFGLLKL
modifications: extracellular domain
notes: recombinant soluble CD40 ligand prepared at Biogen, cross-linking agent
Question: B1 was tested. Which “effect of preincubation on binding of biotin-conjugated anti-CD40L antibody to activated platelets” value [2] did it give?
Answer: inhibited binding
